Test results published in PubChem BioAssay AID1314 (NMMLSC, 2008).
The source made the active and inactive calls.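 How the source made its calls: active means compounds raising the area under the GFP-over-time curve by more than 15% versus untreated cells, meaning slower Sic1 breakdown; inactive means the rest.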 Residues, ends and D or L forms follow the SMILES beside them. *: point of attachment. Cbz = O=C(OCc1ccccc1)*

Test system: S. cerevisiae Cln2-overexpressing, Sic1-GFP degradation, flow cytometry
Assay: Sic1-GFP degradation in Cln2-overexpressing yeast, mechanism study for 26S proteasome disassembly project, secondary assay, flow cytometry, S. cerevisiae (AID 1314)

SMILES | outcome
CC(=O)N1C(=O)C(=C2C=C(C)OC(C)=C2)c2ccccc21 | active; degradation inhibitor
CC(C)C[C@@H](C=O)NC(=O)[C@H](CC(C)C)NC(=O)[C@H](CC(C)C)NC(=O)OCc1ccccc1 (Cbz-Leu-Leu-Leu-aldehyde) | active; degradation inhibitor
